SMILES strings stand for the structures. Where only a bound is given, the exact number is not on record here.

The target in the first experiment is T1, active p38 alpha enzyme (Upstate Biotechnology) (Homo sapiens, UniProt Q16539).
T1 construct: purchased Upstate Biotechnology
T1 sequence (Q16539 whole entry): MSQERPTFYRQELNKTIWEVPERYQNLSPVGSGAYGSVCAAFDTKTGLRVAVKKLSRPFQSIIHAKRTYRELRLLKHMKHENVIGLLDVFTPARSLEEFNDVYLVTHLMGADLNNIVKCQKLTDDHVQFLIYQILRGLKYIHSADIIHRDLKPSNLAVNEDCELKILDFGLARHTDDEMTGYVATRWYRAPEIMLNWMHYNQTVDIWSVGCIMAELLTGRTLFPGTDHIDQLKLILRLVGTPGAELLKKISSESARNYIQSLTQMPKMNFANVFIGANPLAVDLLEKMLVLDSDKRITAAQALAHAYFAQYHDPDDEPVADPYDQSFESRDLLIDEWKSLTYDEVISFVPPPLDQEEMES
The experiment can be described thus: p38α biochemical assay (ATP turnover, luminescent detection, Cambrex PKlight). The note with it: p38α biochemical assay, Table 1 Biological Activity. The method in brief: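 Compounds in DMSO are added to active p38 alpha with MapkapK2 whole protein and ATP at 1.4 uM final. Reactions then run for 2 hours at 30C. A luminescent reagent is added last to quantify total ATP consumed.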
In turn, `Cc1c(C(=O)NCc2nc(-c3ccc(F)cc3)c(-c3nc(C(=O)NC(C)C)cs3)o2)cccc1[N+](=O)[O-]` [Example 223] returned an IC50 greater than 1000 nM.

For `CC(C)NC(=O)c1csc(-c2oc(CNC(=O)CCc3ccccc3Br)nc2-c2ccc(F)cc2)n1` [Example 309], the IC50 was greater than 1000 nM.

Take `CC(C)NC(=O)c1csc(-c2c(-c3ccc(F)cc3)noc2CNC(=O)c2ccc(Cl)nc2)n1` [Example 627]: the IC50 was greater than 1000 nM.

`CCCCCCCC(=O)NCc1onc(-c2ccc(F)cc2)c1-c1nc(C(=O)NC(C)C)cs1` [Example 603] gave a half-inhibitory concentration (IC50) greater than 1000 nM.

`Cc1onc(-c2ccc(Cl)cc2)c1-c1ccn(C(=O)NC(C)CO)n1` (centres unmarked) [Example 6, 3-|3-(4-Chloro-phenyl)-5-methyl-isoxazol-4-yl|-pyrazole-1-carboxylic acid (2-hydroxy-1-methyl-ethyl)-amide] yielded an IC50 of no more than 1000 nM.

Molecule `CC(C)NC(=O)c1csc(-c2c(-c3ccc(F)cc3)noc2CNC(=O)c2ccccc2)n1` [Example 586] yielded an IC50 greater than 1000 nM.

Molecule `CC(C)NC(=O)c1csc(-c2oc(CN3CCN(C(=O)Cc4ccc5c(c4)OCO5)CC3)nc2-c2ccc(F)cc2)n1` [Example 454] gave an IC50 greater than 1000 nM.

Molecule `CC(C)NC(=O)c1csc(-c2oc(CNC(=O)C3CCCN3C(=O)OC(C)(C)C)nc2-c2ccc(F)cc2)n1` (centres unmarked) [Example 295] came in with an IC50 greater than 1000 nM.

For `CNC(=O)c1csc(-c2sc(C)nc2-c2ccc(F)cc2)n1` [Example 47, 4′-(4-Fluoro-phenyl)-2′-methyl-|2,5′|bithiazolyl-4-carboxylic acid methylamide], the IC50 was no more than 1000 nM.

With `CC(C)NC(=O)c1csc(-c2oc(CN3CCN(C(=O)CCc4cccc(C(F)(F)F)c4)CC3)nc2-c2ccc(F)cc2)n1` [Example 537], the concentration for half-maximal inhibition (IC50) was greater than 1000 nM.

Regarding `Cc1cccc([N+](=O)[O-])c1C(=O)NCc1onc(-c2ccc(F)cc2)c1-c1nc(C(=O)NC(C)C)cs1` [Example 695], the IC50 was greater than 1000 nM.

Consider `CC(C)NC(=O)c1csc(-c2c(-c3ccc(F)cc3)noc2CNC(=O)c2ccc3ncccc3c2)n1` [Example 672], for which the IC50 is greater than 1000 nM.

For `CC(C)NC(=O)c1csc(-c2oc(CN3CCN(C(=O)c4cccc(F)c4)CC3)nc2-c2ccc(F)cc2)n1` [Example 364], the IC50 was greater than 1000 nM.

Still in this experiment, the particulars now being: p38α kinase; Table 1 Biological Activity.
With `Cc1nc(-c2ccc(F)cc2)c(-c2nc(C(=O)N(C)C3CCCCC3)cs2)s1` [Example 1857], the concentration for half-maximal inhibition (IC50) is greater than 1000 nM.

In the case of `CC(C)NC(=O)c1csc(-c2c(-c3ccc(F)cc3)noc2CNc2ccccc2-n2cccc2)n1` [Example 1679], the IC50 is greater than 1000 nM.

`Cc1nc(-c2ccc(F)cc2)c(-c2nc(C(=O)N(C)CCc3ccccc3)cs2)s1` [Example 1877]: the IC50 was greater than 1000 nM.

Molecule `CC(C)NC(=O)c1csc(-c2oc(CN[C@H](C)c3ccccc3)nc2-c2ccc(F)cc2)n1` [Example 1098] had an IC50 greater than 1000 nM.

In turn, `CC(C)NC(=O)c1csc(-c2c(-c3ccc(F)cc3)n[nH]c2C2CCN(C(=O)c3cccnc3Cl)CC2)n1` [Example 867] had an IC50 of no more than 1000 nM.

In turn, `Cc1cccc(NCc2nc(-c3ccc(F)cc3)c(-c3nc(C(=O)NC(C)C)cs3)o2)n1` [Example 1312] registered a half-maximal inhibitory concentration (IC50) greater than 1000 nM.

On to `O=C(NCCc1ccc(Cl)cc1)c1csc(-c2c(-c3ccc(F)cc3)n[nH]c2C2CCNCC2)n1` [Example 2127], for which the IC50 is greater than 1000 nM.

`CCN(CC)CCCC(C)NCc1onc(-c2ccc(F)cc2)c1-c1nc(C(=O)NC(C)C)cs1` (centres unmarked) [Example 1482] returned an IC50 greater than 1000 nM.

The molecule `O=C(NCCc1ccc2c(c1)OCO2)c1csc(-c2c(-c3ccc(F)cc3)n[nH]c2C2CCNCC2)n1` [Example 2155] showed an IC50 greater than 1000 nM.

Molecule `CC(C)NC(=O)c1csc(-c2c(-c3ccc(F)cc3)n[nH]c2C2CCN(C(=O)c3ccc4ncccc4c3)CC2)n1` [Example 911] registered an IC50 greater than 1000 nM.

The molecule `CC(C)NC(=O)c1csc(-c2oc(CNc3ccc4c(c3)OCCO4)nc2-c2ccc(F)cc2)n1` [Example 1353] yielded an IC50 greater than 1000 nM.

As to `O=C(NCCCO)c1csc(-c2c(-c3ccc(F)cc3)n[nH]c2C2CCNCC2)n1` [Example 2041], the IC50 was no more than 1000 nM.

`Cc1nc(-c2ccc(F)cc2)c(-c2nc(C(=O)N3CCN(c4ccc(O)cc4)CC3)cs2)s1` [Example 1902]: the IC50 is greater than 1000 nM.

`COc1cccc(N2CCN(Cc3onc(-c4ccc(F)cc4)c3-c3nc(C(=O)NC(C)C)cs3)CC2)c1` [Example 1597]: the IC50 was greater than 1000 nM.

The molecule `Cc1nc(-c2ccc(F)cc2)c(-c2nc(C(=O)NCc3ccncc3)cs2)s1` [Example 1742] showed an IC50 of no more than 1000 nM.

On to `C#CCN(Cc1nc(-c2ccc(F)cc2)c(-c2nc(C(=O)NC(C)C)cs2)o1)Cc1ccc(Cl)cc1Cl` [Example 1290], for which the IC50 is greater than 1000 nM.

For the molecule `CC(C)NC(=O)c1csc(-c2c(-c3ccc(F)cc3)noc2CNCc2ccncc2)n1` [Example 1418], the IC50 was greater than 1000 nM.

Take `COc1ccccc1N1CCN(Cc2nc(-c3ccc(F)cc3)c(-c3nc(C(=O)NC(C)C)cs3)o2)CC1` [Example 1270]: the IC50 was greater than 1000 nM.

`CC(C)NC(=O)c1csc(-c2c(-c3ccc(F)cc3)noc2CNCCN2CCCC2)n1` [Example 1424]: the half-inhibitory concentration (IC50) is no more than 1000 nM.

For the molecule `COc1ccc(C(=O)N2CCC(c3[nH]nc(-c4ccc(F)cc4)c3-c3nc(C(=O)NC(C)C)cs3)CC2)c(OC)c1` [Example 939], the IC50 was greater than 1000 nM.

Consider `CC(C)NC(=O)c1csc(-c2c(-c3ccc(F)cc3)n[nH]c2C2CCN(C(=O)C(Cl)(Cl)Cl)CC2)n1` [Example 879], for which the IC50 is greater than 1000 nM.

The molecule `CC1CCN(Cc2nc(-c3ccc(F)cc3)c(-c3nc(C(=O)NC(C)C)cs3)o2)CC1` [Example 1198] returned an IC50 greater than 1000 nM.

The molecule `CC(C)NC(=O)c1csc(-c2oc(CNCCc3cccc(F)c3)nc2-c2ccc(F)cc2)n1` [Example 1129] displayed an IC50 greater than 1000 nM.

Turning to `CC(C)NC(=O)c1csc(-c2oc(CBr)nc2-c2ccc(F)cc2)n1` [Example 1181], the IC50 is greater than 1000 nM.

`CC(C)NC(=O)c1csc(-c2c(-c3ccc(F)cc3)noc2CNCc2cc(F)cc(F)c2)n1` [Example 1467] returned an IC50 greater than 1000 nM.

`CC(C)NC(=O)c1csc(-c2oc(CNC3CCCC3)nc2-c2ccc(F)cc2)n1` [Example 1066] displayed an IC50 greater than 1000 nM.

Regarding `CC(C)NC(=O)c1csc(-c2c(-c3ccc(F)cc3)noc2CN2CCC(O)(c3ccc(Cl)cc3)CC2)n1` [Example 1615], the IC50 was greater than 1000 nM.

As for `Cc1nc(-c2ccc(F)cc2)c(-c2nc(C(=O)N(C)CCC#N)cs2)s1` [Example 1840], the IC50 was greater than 1000 nM.

Molecule `Cc1ccc(NC(=O)c2csc(-c3sc(C)nc3-c3ccc(F)cc3)n2)nc1` [Example 1959] returned an IC50 greater than 1000 nM.

As for `CC(C)NC(=O)c1csc(-c2c(-c3ccc(F)cc3)n[nH]c2C2CCN(C(=O)C(C)NC(=O)OC(C)(C)C)CC2)n1` (centres unmarked) [Example 962], the IC50 is greater than 1000 nM.

Regarding `Cc1nc(-c2ccc(F)cc2)c(-c2nc(C(=O)Nc3cc(F)c(F)cc3F)cs2)s1` [Example 1995], the IC50 was greater than 1000 nM.

`CC(C)CCNCc1onc(-c2ccc(F)cc2)c1-c1nc(C(=O)NC(C)C)cs1` [Example 1401] yielded an IC50 greater than 1000 nM.

Consider `CC(C)NC(=O)c1csc(-c2c(-c3ccc(F)cc3)n[nH]c2C2CCN(C(=O)c3ccc(N(C)C=O)cc3)CC2)n1` [Example 924], for which the IC50 is greater than 1000 nM.

`CC(C)NC(=O)c1csc(-c2c(-c3ccc(F)cc3)noc2CBr)n1` [Example 1700] came in with an IC50 greater than 1000 nM.

The term IC50 denotes the concentration at which inhibition is half-maximal. Low values mean greater potency, high ones weaker potency.
